≈ marks a conversion by molar mass, not a printed value. Entries after “also recorded” stand apart in the source; their conditions may differ. Where two headings read alike, the source gives them in different places.
Columns and labels:
[1] = test system: hamster; assay: in vitro luteolytic activity in the hamster compared with PGI2 at equally active antiaggregant doses
[2] = test system: anaesthetized rat; assay: hypotensive effect on the anaesthetized rat; format: in vivo; conditions: PGI2 = 100
[3] = test system: platelet aggregation; assay: in vitro inhibitory effect on platelet aggregation induced by 10 μM ADP in platelet rich plasma; format: cell-based; conditions: for IC50: read-out: in vitro antiaggregant effect IC50 (50% platelet aggregation inhibiting concentration)
Description: IC50 = 50% platelet aggregation inhibiting concentration.

[4] = product of reaction of PGI2 with acid; cited from earlier work
[5] = test system: blood platelet; conditions: infused in man; cited from earlier work
[6] = test system: gastric mucous membrane; conditions: ulcers induced by e.g. acetyl salicylic acid and indomethacin; test animals, e.g. the rat; cited from earlier work
[7] = test system: man; conditions: infused in man; cited from earlier work
[8] = test system: asthmatic patients; conditions: inhaled; cited from earlier work
[9] = test system: test animals; conditions: cited from earlier work
[10] = test system: uterus; conditions: monkey; cited from earlier work
[11] = test system: uterus; conditions: person; cited from earlier work
[12] = acid; enol ether; listed as natural prostacyclin; cited from earlier work
[13] = antiulcerogenic activity compared with PGI2 at equi-active antiaggregant doses; format: in vivo
[14] = 10 μM ADP, platelet rich plasma

**Q.** For “5c,13t-11α,15S-dihydroxy-9a-deoxy-9a,7a-homo-dimethylene-16-phenoxy- 17,18,19,20-tetranor,prostacycla-5,13-dienoic acid”, which “in vitro luteolytic activity relative to PGI2” value [1] is on record?
**A.** 8 times greater

**Q.** Which results are given for “5t,13t-11α,15S-dihydroxy-9a-deoxy-9a,7a-homo-dimethylene-prostacycla- 5,13-dienoic acid [(3)]”?
**A.** hypotensive effect potency ratio [2]: 0.25; in vitro antiaggregant effect IC50 (50% platelet aggregation inhibiting concentration) [3, 14]: 20 ηg/ml

**Q.** For `CCCCC[C@H](O)/C=C/[C@@H]1[C@@H](CC(=O)CCCCC(=O)O)[C@@H](O)C[C@H]1O` [6-keto-PGF1α], which “biological activity characteristic of natural prostacyclin” value [4] is on record?
**A.** almost none of the biological activity

**Q.** Which results are given for `CCCCC[C@H](O)/C=C/[C@@H]1[C@H]2C/C(=C/CCCC(=O)O)O[C@H]2C[C@H]1O` [(1), 6,9α-oxide-11α,15(S)-dihydroxy-prosta-5(Z),13(E)-dienoic acid]?
**A.** blood platelet anti-aggregant and disaggregant properties [5]: blood platelet anti-aggregant and disaggregant properties; protection of gastric mucous membrane from ulcers [6]: able to protect the gastric mucous membrane from ulcers; hypotensive and vasodilator activity [7]: hypotensive and vasodilator activity; hypotensive effect potency ratio [2]: 100; prevention of bronchoconstriction [8]: prevents aspecifically induced (e.g. by nebulized water or by effort) bronchocostriction; luteolytic activity [9]: luteolytic activity; uterus stimulant action [10]: uterus stimulant action; IC50 [3, 14]: 0.001 µg/mL (≈ 0.00284 µM); uterus stimulant action [11]: uterus stimulant action; chemical stability of natural prostacyclin [12]: extremely acid sensitive; also recorded: marked chemical instability

**Q.** Which results are given for `CCCCC[C@H](O)/C=C/[C@@H]1[C@H]2C/C(=C/CCCC(=O)O)C[C@H]2C[C@H]1O` [(2), 5t,13t-11α,15S-dihydroxy-9a-deoxy-9a-methylene-prostacycla-5,13-dienoic acid]?
**A.** hypotensive effect potency ratio [2]: 1.15; IC50 ([3]; Platelet): 0.025 µg/mL (≈ 0.0713 µM)

**Q.** With “dl-5,13t-11α,15S-dihydroxy-9a-deoxy-7-nor-methylene-prostacycla-5,13-dienoic acid” as the molecule, how does the “antiulcerogenic activity relative to PGI2” value [13] read?
**A.** ten times greater

**Q.** For “dl-5,13t-11α,15S-dihydroxy-9a-deoxy-9a,9b-dimethylene-17-cyclohexyl- 18,19,20-trinor-prostacycla-5,13-dienoic acid”, which “in vitro luteolytic activity relative to PGI2” value [1] is on record?
**A.** 5 times greater
